Data: article PMC11215778 (Journal of Medicinal Chemistry, 2024)
Where two headings read alike, the source gives them in different places.

What was measured:
[1] = Plasma stability assay, human plasma; format: in vitro ADME; details: pooled plasma; human plasma, 5 μM, 37 °C; read-out: Plasma stability % remaining at 6 h, hum
Procedure: […] The reactions were terminated by adding 4 vol of ice-cold methanol, and the samples were then mixed vigorously, frozen at −20 °C for 1 h, and left overnight at 8 °C. After that, the samples were centrifuged, and the supernatant was analyzed by means of LC–MS/MS Sciex 6500 triple quadrupole (Sciex, Framingham, MA, USA). Zero time points were prepared by adding ice-cold methanol to the compound prior to the addition of the plasma.

[2] = Plasma stability assay, rat plasma; format: in vitro ADME
[3] = biological target: D2 receptor; details: cited from earlier work
[4] = Microsomal stability, rat liver microsomes; format: in vitro ADME; details: pH 7.4; rat liver microsomes
Procedure: (§1) . Zero time points were prepared by adding ice-cold methanol to a mixture of the compound with cofactors prior to the addition of microsomes. […]. Intrinsic clearance (CLint) was calculated using the following formula: [drawing 1] where V = incubation volume per milligram of microsomal protein (μL/mg) and t1/2 = microsomal half-life.

[5] = in vitro; format: in vitro ADME; details: human, Caco-2
Procedure: A Transwell system consisting of two compartments separated by a monolayer of differentiated Caco-2 cells was employed for the intestinal permeability evaluation. Thanks to the ability of Caco-2 cells to become polarized, bidirectional transport (A–B and B–A) could be measured and the efflux ratio calculated.
The transepithelial bidirectional transport of tested compounds (5 μM, pH 7.4/7.4) across the Caco-2 monolayers was studied using the BD BioCoat HTS Caco-2 assay system (BD Biosciences, Bedford, MA) as described in detail elsewhere.[47] Aliquots were collected from the donor and acceptor compartment at the end of the transport period (3 h), the integrity of monolayers was verified using Lucifer Yellow dye, and the compounds were quantified using LC–MS/MS (Triple Quad 6500+, Sciex). The apparent permeability coefficient (Papp) was calculated from the following equation: Papp = (dQ/dt)/C0 × A, where dQ/dt is the rate of absorption of the drug across the cells, C0 is the donor compartment concentration at time zero, and A is the area of the monolayer. The efflux ratio was expressed as (Papp B–A)/(Papp A–B). Recovery (%) was determined as (total compound mass in donor and receiver compartments at the end of the incubation/initial compound mass in the donor compartment) × 100.

[6] = tested on: D3 receptor; details: cited from earlier work
[7] = Microsomal stability, human liver microsomes; format: in vitro ADME; details: pooled liver microsomes, pH 7.4; human liver microsomes 0.5 mg/mL, 10 μM compound; read-out: Microsomal stability CLint, hum
Procedure: as §1

[8] = Cytotoxicity assay (CellTiter-Glo) on normal human dermal fibroblasts; format: cell-based; details: normal human dermal fibroblasts (NHDF)
Procedure: The cytotoxicity of the compounds was evaluated in nontumor normal human dermal fibroblasts (NHDF) purchased from ATCC (PCS-201-012, Manassas, VA, USA). The cells were negatively tested for the presence of mycoplasma (cat. #: LT07-318 MycoAlert Mycoplasma Detection kit, Lonza). The cells were cultivated in DMEM high glucose 4.5 g/L medium (cat. #: R8758, Merck, Germany). The medium was supplemented with 10% fetal bovine serum (cat. #: F7524, Merck, Germany; inactivated at 56 °C for 30 min) and 1.0% of L-glutamine (cat. #: G7513, Merck, Germany) without antibiotics. Cells were seeded in 384-well format white micro plates (cat. #: 164610, Nunc, Thermo Fisher Scientific, USA) at a concentration of 60,000 cells per mL and left to rest overnight. Next day, 1 and 10 μM concentrations of the tested compounds were added in triplicates. The cells were cultivated at 37 °C and 5% CO2 for 72 h after which a luminescent cell viability assay (CellTiter-Glo 2.0, cat. #: Promega, Madison, USA) was added. The plate was left on a shaker (350 rpm) in the dark for 20 min at RT. Luminescence was measured by a Spark multimode reader from Tecan (Tecan Group Ltd., Switzerland). The signal of the compound-treated cells was related to the value of the untreated control, which was arbitrarily set to 100% viability.

[9] = tested on: MDCKII-MDR1 cells
Procedure: (§2) Canine MDR1 Knockout, Human MDR1 Knockin MDCKII cells (Sigma-Aldrich) were employed to estimate CNS permeability of the compounds. Briefly, the cells were seeded at a density of 30,000 cells per 24-well plate insert of the Transwell sandwich (CellQART, SABEU GmbH&Co.KG, Germany). They were left to differentiate for 5 days with medium exchange every other day. […] The treated cells were then returned to the incubator for 2 h at 37 °C. After that, samples were collected from both apical inserts and basolateral wells and analyzed using LC–MS (Triple Quad 6500+, Sciex). LY permeation was used to check for the integrity of monolayer in each sample. […] Only wells displaying LY permeability <2% were qualified for compound transport quantification. Apparent permeability coefficients (Papp's), efflux ratios, and recoveries for the compounds were calculated as described in Section 4.2.8. The data represent means ± SD of two independent experiments performed in triplicate.

[10] = in vitro; details: dog, MDCK-MDR1
Procedure: as §2

[11] = tested on: P-gp (human MDR1); test: in vitro; details: dog, MDCK-MDR1
Procedure: as §2

[12] = 10 uM, read-out: NHDF viability at 10 uM (supplement csv)
[13] = 10 μM, untreated control = 100%, read-out: NHDF Viability 10 μM

COC(=O)[C@@H]1[C@H]2C[C@H]3c4[nH]c5ccccc5c4CCN3C[C@@H]2CC[C@@H]1O [Compound 1, Yohimbine, reference compound]
remaining at 6 h, 5 μM [1]: 106%
remaining at 6 h, 5 μM [2]: 90 ± 2%
D2 receptor pKi [3]: 6.4
microsomal CLint at 10 µM [4]: 2 µL/min/mg
Papp B→A at 3 h, 5 µM ([5]; 5 μM, pH 7.4/7.4, 3 h, read-out: Caco-2 permeability Papp B–A): 23 ± 8 ×10⁻⁶ cm/s
affinity toward the D3 receptor [6]: negligible
microsomal CLint at 10 µM [7]: 7 ± 1 µL/min/mg
viability at 72 h, 1 µM [8]: 112%
viability at 72 h, 10 µM [8, 12]: 105%
viability at 72 h, 10 µM [8, 13]: 105%

N[C@H]1C[C@H](OC(=O)[C@@H]2[C@H]3C[C@H]4c5[nH]c6ccccc6c5CCN4C[C@@H]3CC[C@@H]2O)C1 [Compound 4n, 17-α-Hydroxyyohimban-16-α-carboxylic Acid trans-3-Aminocyclobutyl Ester]
recovery (B–A) in MDCKII-MDR1 cells ([9]; B–A direction): 98%
P-gp transporter substrate ([9]; MDCKII-MDR1 cells): substrate for the P-gp transporter
remaining at 6 h, 5 μM [1]: 99%
remaining at 6 h, 5 μM [2]: 84 ± 2%
recovery at 2 h, 10 µM [10]: 100%
Papp A→B at 2 h, 10 µM [11]: 0.9 ×10⁻⁶ cm/s
Papp B→A at 2 h, 10 µM [11]: 3.5 ± 1.4 ×10⁻⁶ cm/s
recovery at 3 h, 5 µM [5]: 103%
Papp A→B at 3 h, 5 µM ([5]; 5 μM, pH 7.4/7.4, 3 h, read-out: Caco-2 permeability Papp A–B): 3 ± 1 ×10⁻⁶ cm/s
microsomal CLint at 10 µM [7]: 2 ± 1 µL/min/mg
viability at 72 h, 1 µM [8]: 93%
viability at 72 h, 10 µM [8, 12]: 89%
viability at 72 h, 10 µM [8, 13]: 89%
